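Exposure lasted 48 hours, with cells grown in 96-well plates and compounds tested at five concentrations. GI50 marks 50% less growth.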 The source made the active and inactive calls. No stated cut-off is given here; in the data, active = GI50 up to about 1.1 µM and inactive = higher.

Holding throughout (experiment): NCI anticancer screen, dose series, 48 h
The test system of test [1] is KM12.
Test [2] relates to SK-MEL-2.
Test [3] deals with NCI-H226.
Test [4] relates to HCT-15.
In test [5] the test system is SF-295.
Test [6] deals with MDA-MB-231.
The test system of test [7] is TK-10.
Test [8] deals with EKVX.
Test [9] deals with COLO 205.
For test [10], the system named is HOP-92.
Test [11] has as its system Hs-578T.
Test [12] concerns UACC-257.
Test [13] relates to MOLT-4.
Test [14] deals with PC-3.
The test system of test [15] is UO-31.
The subject of test [16] is OVCAR-4.
Test [17] concerns LXFL 529.
For test [18], the system named is LOX IMVI.
The test system of test [19] is MDA-N.
Test [20] has as its system NCI-H522.

For `CCN(CC)CCC(=O)O[C@H]1CC[C@H](CC(C)[C@H]2CC(=O)C(C)C=C(C)[C@H](OC(=O)CCN(CC)CC)C(OC)C(=O)[C@@H](C)CC(C)/C=C/C=C/C=C(C)C(OC)CC3CC[C@H](C)[C@](O)(O3)C(=O)C(=O)N3CCCCC3C(=O)O2)CC1OC` (some centres not stated), the GI50 in test [1] is 0.443 µM (active); in test [2] it was 0.0214 µM (active); in test [3], 0.0209 µM (active); in test [4], 0.137 µM; in test [5] it was 0.0218 µM (active); in test [6] it was 0.228 µM (active). The GI50 in test [7] is 0.627 µM (active); in test [8], 0.025 µM (active); in test [9], 0.906 µM (active); in test [10], 0.0348 µM (active); in test [11], 0.0345 µM (active); in [12], 1.32 µM (inactive). In addition, the GI50 is 0.0185 µM (active) in test [13]; < 0.0195 µM (active) in test [14]; < 0.01 µM (active) in test [15]; < 0.0132 µM (active) in test [16]; < 0.01 µM (active) in [17]; 0.0222 µM (active) in test [18]. Further, the GI50 in test [19] is 0.294 µM (active); in test [20], 0.0276 µM (active).
Take `O=[N+]([O-])c1ccc(-c2ccc(-c3csc(Nc4ccccc4)n3)o2)cc1`: the GI50 in [1] is 19.3 µM (inactive); in test [2], 19.2 µM (inactive); in test [3], 40.6 µM (inactive); in test [4], 19.7 µM; in test [5] it was 34.6 µM (inactive); in test [7], 19.1 µM (inactive). Further, the GI50 in test [8] is 19.1 µM (inactive); in [9] it was 20.9 µM (inactive); in [10], 19.5 µM (inactive); in [12] it was 17.9 µM (inactive); in [13], 3.62 µM (inactive); in [15], 18.7 µM (inactive). The GI50 in test [16] is 17.3 µM (inactive); in [17], 18.6 µM (inactive); in test [18] it was 18.5 µM (inactive); in [20] it was 14.6 µM (inactive).
As to `Fc1cccc(F)c1C1SCc2nc3ccccc3n21` (configuration not stated) [THIAZOLOBENZIMIDAZOLE], the GI50 in test [1] is > 100 µM (inactive); in [2], > 100 µM (inactive); in test [3], 97.5 µM (inactive); in test [4] it was 54.5 µM; in test [5] it was 39.8 µM (inactive); in [7], 61.4 µM (inactive). For the same compound, the GI50 in test [8] is 64.6 µM (inactive); in test [9], > 100 µM (inactive); in test [10] it was 28.5 µM (inactive); in test [12] it was 60.8 µM (inactive); in test [13], 35.3 µM (inactive); in [15], 51.5 µM (inactive). Besides, the GI50 in test [16] was > 100 µM (inactive); in test [17] it was 60.4 µM (inactive); in test [18] it was 80.4 µM (inactive); in test [20], 53.7 µM (inactive).

The values above are taken from ChEMBL document CHEMBL1201862, “PubChem BioAssay data set” (2004).
